ChEMBL document CHEMBL1772973, “Design, synthesis, radiolabeling, and in vitro and in vivo evaluation of bridgehead iodinated analogues of N-{2-[4-(2-methoxyphenyl)piperazin-1-yl]ethyl}-N-(pyridin-2-yl)cyclohexanecarboxamide (WAY-100635) as potential SPECT ligands for the 5-HT1A receptor” (J Med Chem, 2011)

What was measured:
Type in all cases: ADME, organism-based
Kidney [1] = assay: Biodistribution in Wistar rat kidney at 7 MBq, iv after 45 mins; details: in vivo, 0.75 h
Rattus norvegicus [2] = assay: Biodistribution in Wistar rat frontal cortex at 7 MBq, iv after 120 mins; details: in vivo, 2 h
Kidney [3] = assay: Biodistribution in Wistar rat kidney at 7 MBq, iv after 15 mins; details: in vivo, 0.25 h
Rattus norvegicus [4] = assay: Biodistribution in Wistar rat frontal cortex at 7 MBq, iv after 15 mins; details: in vivo, 0.25 h
Nucleic Acid [5] = assay: Ratio of drug level in cerebellum to hippocampus in Wistar rat at 7 MBq, iv after 45 mins; details: in vivo, 0.75 h
Thyroid gland [6] = assay: Biodistribution in Wistar rat thyroid assessed per organ at 7 MBq, iv after 120 mins; details: in vivo, 2 h
Heart [7] = assay: Biodistribution in Wistar rat heart at 7 MBq, iv after 15 mins; details: in vivo, 0.25 h
Nucleic Acid [8] = assay: Ratio of drug level in cerebellum to frontal cortex in Wistar rat at 7 MBq, iv after 45 mins; details: in vivo, 0.75 h
Occipital cortex [9] = assay: Biodistribution in Wistar rat occipital cortex at 7 MBq, iv after 45 mins; details: in vivo, 0.75 h
Blood [10] = assay: Biodistribution in Wistar rat blood at 7 MBq, iv after 15 mins; details: in vivo, 0.25 h
Striatum [11] = assay: Biodistribution in Wistar rat striatum at 7 MBq, iv after 15 mins; details: in vivo, 0.25 h
Occipital cortex [12] = assay: Biodistribution in Wistar rat occipital cortex at 7 MBq, iv after 15 mins; details: in vivo, 0.25 h
Hippocampus [13] = assay: Biodistribution in Wistar rat hippocampus at 7 MBq, iv after 15 mins; details: in vivo, 0.25 h
Striatum [14] = assay: Biodistribution in Wistar rat striatum at 7 MBq, iv after 45 mins; details: in vivo, 0.75 h
Rattus norvegicus [15] = assay: Biodistribution in Wistar rat rest cortex at 7 MBq, iv after 45 mins; details: in vivo, 0.75 h
Heart [16] = assay: Biodistribution in Wistar rat heart at 7 MBq, iv after 45 mins; details: in vivo, 0.75 h
Heart [17] = assay: Biodistribution in Wistar rat heart at 7 MBq, iv after 120 mins; details: in vivo, 2 h
Rattus norvegicus [18] = assay: Biodistribution in Wistar rat rest cortex at 7 MBq, iv after 15 mins; details: in vivo, 0.25 h
Thyroid gland [19] = assay: Biodistribution in Wistar rat thyroid assessed per organ at 7 MBq, iv after 15 mins; details: in vivo, 0.25 h
Liver [20] = assay: Biodistribution in Wistar rat liver at 7 MBq, iv after 15 mins; details: in vivo, 0.25 h
Cerebellum [21] = assay: Biodistribution in Wistar rat cerebellum at 7 MBq, iv after 15 mins; details: in vivo, 0.25 h
Occipital cortex [22] = assay: Biodistribution in Wistar rat occipital cortex at 7 MBq, iv after 120 mins; details: in vivo, 2 h
Liver [23] = assay: Biodistribution in Wistar rat liver at 7 MBq, iv after 45 mins; details: in vivo, 0.75 h
Striatum [24] = assay: Biodistribution in Wistar rat striatum at 7 MBq, iv after 120 mins; details: in vivo, 2 h
Nucleic Acid [25] = assay: Ratio of drug level in cerebellum to striatum in Wistar rat at 7 MBq, iv after 45 mins; details: in vivo, 0.75 h
Lung [26] = assay: Biodistribution in Wistar rat lung at 7 MBq, iv after 45 mins; details: in vivo, 0.75 h
Lung [27] = assay: Biodistribution in Wistar rat lung at 7 MBq, iv after 15 mins; details: in vivo, 0.25 h
Cerebellum [28] = assay: Biodistribution in Wistar rat cerebellum at 7 MBq, iv after 45 mins; details: in vivo, 0.75 h
Hippocampus [29] = assay: Biodistribution in Wistar rat hippocampus at 7 MBq, iv after 120 mins; details: in vivo, 2 h
Blood [30] = assay: Biodistribution in Wistar rat blood at 7 MBq, iv after 120 mins; details: in vivo, 2 h
Nucleic Acid [31] = assay: Ratio of drug level in cerebellum to occipital cortex in Wistar rat at 7 MBq, iv after 45 mins; details: in vivo, 0.75 h
Lung [32] = assay: Biodistribution in Wistar rat lung at 7 MBq, iv after 120 mins; details: in vivo, 2 h
Hippocampus [33] = assay: Biodistribution in Wistar rat hippocampus at 7 MBq, iv after 45 mins; details: in vivo, 0.75 h
Liver [34] = assay: Biodistribution in Wistar rat liver at 7 MBq, iv after 120 mins; details: in vivo, 2 h
Blood [35] = assay: Biodistribution in Wistar rat blood at 7 MBq, iv after 45 mins; details: in vivo, 0.75 h
Cerebellum [36] = assay: Biodistribution in Wistar rat cerebellum at 7 MBq, iv after 120 mins; details: in vivo, 2 h
Rattus norvegicus [37] = assay: Biodistribution in Wistar rat rest cortex at 7 MBq, iv after 120 mins; details: in vivo, 2 h
Kidney [38] = assay: Biodistribution in Wistar rat kidney at 7 MBq, iv after 120 mins; details: in vivo, 2 h
Rattus norvegicus [39] = assay: Biodistribution in Wistar rat frontal cortex at 7 MBq, iv after 45 mins; details: in vivo, 0.75 h

O=C(N(CCN1CCN(c2ccccc2O)CC1)c1ccccn1)C12C3C4C1C1C2C3C41[123I] (centres undefined)
Drug uptake (Kidney [1]): 5.47 % ID/g | Drug uptake (Rattus norvegicus [2]): 0.04 % ID/g | Drug uptake (Kidney [3]): 5.54 % ID/g | Drug uptake (Rattus norvegicus [4]): 0.34 % ID/g | Ratio (Nucleic Acid [5]): 2.38 | Drug uptake (Thyroid gland [6]): 0.25 %ID | Drug uptake (Heart [7]): 0.22 % ID/g | Ratio (Nucleic Acid [8]): 1.44 | Drug uptake (Occipital cortex [9]): 0.13 % ID/g | Drug uptake (Blood [10]): 0.18 % ID/g | Drug uptake (Striatum [11]): 0.23 % ID/g | Drug uptake (Occipital cortex [12]): 0.37 % ID/g | Drug uptake (Hippocampus [13]): 0.44 % ID/g | Drug uptake (Striatum [14]): 0.07 % ID/g | Drug uptake (Rattus norvegicus [15]): 0.09 % ID/g | Drug uptake (Heart [16]): 0.14 % ID/g | Drug uptake (Heart [17]): 0.12 % ID/g | Drug uptake (Rattus norvegicus [18]): 0.28 % ID/g | Drug uptake (Thyroid gland [19]): 0.28 %ID | Drug uptake (Liver [20]): 2.38 % ID/g | Drug uptake (Cerebellum [21]): 0.25 % ID/g | Drug uptake (Occipital cortex [22]): 0.04 % ID/g | Drug uptake (Liver [23]): 2.08 % ID/g | Drug uptake (Striatum [24]): 0.03 % ID/g | Ratio (Nucleic Acid [25]): 0.93 | Drug uptake (Lung [26]): 0.3 % ID/g | Drug uptake (Lung [27]): 0.59 % ID/g | Drug uptake (Cerebellum [28]): 0.08 % ID/g | Drug uptake (Hippocampus [29]): 0.05 % ID/g | Drug uptake (Blood [30]): 0.22 % ID/g | Ratio (Nucleic Acid [31]): 1.73 | Drug uptake (Lung [32]): 0.19 % ID/g | Drug uptake (Hippocampus [33]): 0.18 % ID/g | Drug uptake (Liver [34]): 1.97 % ID/g | Drug uptake (Blood [35]): 0.2 % ID/g | Drug uptake (Cerebellum [36]): 0.04 % ID/g | Drug uptake (Rattus norvegicus [37]): 0.03 % ID/g | Drug uptake (Kidney [38]): 3.12 % ID/g | Drug uptake (Rattus norvegicus [39]): 0.11 %ID
